Results from PubChem BioAssay (NCI).
Values joined by “and” are separate entries in the source; they are usually repeats but may differ in a detail not shown here. Identical values can stand only once.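 Each compound was tested at five concentrations against cells in 96-well plates for 48 hours. Here, GI50 denotes the concentration required for 50% inhibition of growth. At the TGI there is no net growth.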 Where a SMILES comes first, the peptide text is derived from it. [ ]: non-standard residue; d: D form. The star is where a group is joined. ξ: configuration not given here. ξD = NC(CC(=O)O)C(=O)O; Ac3c = NC1(C(=O)O)CC1; Boc = CC(C)(C)OC(=O)*; OBn = c1ccc(CO*)cc1

Legend:
Assay in all cases: inhibition of tumour cell growth, NCI panel, 48 h
BT-549 breast = test system: BT-549 breast
CCRF-CEM leukemia = test system: CCRF-CEM leukemia
EKVX NSCLC = test system: EKVX NSCLC
K-562 leukemia = test system: K-562 leukemia
MDA-N = test system: MDA-N
NCI-H226 lung = test system: NCI-H226 lung
NCI/ADR-RES ovarian = test system: NCI/ADR-RES ovarian
PC-3 prostate = test system: PC-3 prostate
SF-295 CNS = test system: SF-295 CNS
SN12C renal = test system: SN12C renal

Structure (SMILES)	TGI (BT-549 breast)	TGI (CCRF-CEM leukemia)	TGI (EKVX NSCLC)	TGI (K-562 leukemia)	TGI (MDA-N)	TGI (NCI-H226 lung)	TGI (NCI/ADR-RES ovarian)	TGI (PC-3 prostate)	TGI (SF-295 CNS)	TGI (SN12C renal)	GI50 (CCRF-CEM leukemia)	GI50 (NCI-H226 lung)	GI50 (SF-295 CNS)
COC(=O)c1ccccc1C#CCCCOS(C)(=O)=O	> 10 µM	> 10 µM	> 10 µM	> 10 µM	> 10 µM	> 10 µM	> 10 µM	> 10 µM	> 10 µM	> 10 µM			
CCOC(=O)C1=C(C)C(C(=O)OC)/C(=C/c2cccc3cccnc23)C1=O (stereo not drawn)	> 10 µM	> 10 µM	> 10 µM	> 10 µM	> 10 µM	> 10 µM	> 10 µM	> 10 µM	> 10 µM	> 10 µM			
O=c1[nH]c2cc3cccnc3c(Cl)c2nc1C(F)(F)F	86.7 µM	98.2 µM	> 100 µM	> 100 µM	> 100 µM	> 100 µM	> 100 µM	> 100 µM	> 100 µM	> 100 µM			
C=CCN(c1cc(OCc2ccccc2)c(NC(C)=O)cc1[N+](=O)[O-])S(C)(=O)=O	93.3 µM	> 100 µM	33.8 µM	> 100 µM	> 100 µM	25.2 µM	> 100 µM	> 100 µM	60.4 µM	> 100 µM			
COc1ccc(C(=C(I)c2ccccc2)c2ccc(OC)cc2)cc1	> 100 µM	> 100 µM	> 100 µM	> 100 µM	> 100 µM	> 100 µM	> 100 µM	> 100 µM	> 100 µM	> 100 µM			
Cc1ccc(C)c(COCCOCn2cc(Br)c(N)nc2=O)c1	> 100 µM	> 100 µM	> 100 µM	> 100 µM	> 100 µM	> 100 µM	> 100 µM	> 100 µM	> 100 µM	> 100 µM			
C=C1C(=O)O[C@H]2C/C(C)=C/CC/C(C)=C/CC[C@@](C)(O)[C@@H](I)C[C@@H]12	6.62 µM	5.4 µM	20.8 µM	13.5 µM	13.3 µM	12.2 µM	24.7 µM	21.1 µM	32.8 µM	18.1 µM			
COCN1CCN=c2c1c1c3c(c4ccccc4n23)CCC1	> 100 µM	> 100 µM	> 100 µM	> 100 µM	> 100 µM	> 100 µM	> 100 µM	> 100 µM	> 100 µM	> 100 µM			
Cc1cc(Nc2ccc(N=Nc3ccc(O)c4ncccc34)cc2)nc(C)n1	> 84.4 µM	7.22 µM	> 79.3 µM	39.1 µM	42.8 µM	44.1 µM	61 µM	> 69.9 µM	> 80.4 µM	> 88.2 µM			
O=c1c2ccccc2n2nnc3ccc(NCCCNCCNCCCNc4ccc5nnn6c7ccccc7c(=O)c4c56)c1c32	18.9 µM	> 50 µM	20.3 µM	> 50 µM	> 50 µM	0.99 µM	> 25.5 µM	16.3 µM	> 27.5 µM	7.49 µM			
Cn1c(-c2ccc[se]2)ccc1-c1ccc(CO)[se]1	> 100 µM	> 100 µM	> 100 µM	> 100 µM	> 60.5 µM	0.884 µM	52.2 µM	> 100 µM	> 100 µM	> 100 µM			
O=C(Nc1nnc(-c2ccccc2)o1)C(SC(=S)N1CCOCC1)c1ccccc1 (stereo not drawn)	> 100 µM	> 100 µM	55.5 µM	> 100 µM	> 100 µM	> 100 µM	64.7 µM	> 100 µM	> 100 µM	> 100 µM			
CCCn1c(=O)c2ccccc2[n+]2c(-c3ccc([N+](=O)[O-])cc3)csc12	> 100 µM	82.5 µM	> 100 µM	69.4 µM	> 100 µM	> 100 µM	36.5 µM	> 100 µM	> 100 µM	> 100 µM			
CC1(C)CN(c2ccccc2)C(=O)C1OC(=O)[C@@]1(C)C[C@@H]2C=C[C@H]1C2 (stereo partly drawn)	82.5 µM	81.4 µM	59.9 µM	> 100 µM	41.6 µM	53.6 µM	52.2 µM	83.2 µM	46.7 µM	49.8 µM			
C=CC(C)(C)N[C@@H](C(=O)N1CCC[C@H]1c1nc(-c2nc(C(=O)OCC=C(C)C)c(C)o2)c(C)o1)C(C)C	46.2 µM	41.8 µM	> 100 µM	> 100 µM	38.4 µM	35.6 µM	59 µM	> 100 µM	42.8 µM	39.2 µM			
CC(NC(=O)OCc1ccccc1)NC(=O)C(CC(=O)OC(C)(C)C)NC(=O)OC(C)(C)C (stereo not drawn)	> 100 µM	> 100 µM	> 100 µM	> 100 µM	> 100 µM	> 100 µM	> 100 µM	> 100 µM	> 100 µM	> 100 µM			
O=C(c1ccccc1)c1c(C(F)(F)F)n([O-])c2cc(Cl)c(Cl)cc2[n+]1=O	4.8 µM	3.7 µM	6.96 µM	6.09 µM	4.17 µM	13.7 µM	6.36 µM	4.03 µM	7.31 µM	1.87 µM			
CC(C)[C@H]1NC(=O)[C@H]2N=C(O[C@@H]2C)[C@@H]2CCCN2C(=O)[C@H](Cc2ccccc2)NC(=O)[C@@H]2CSC(=N2)[C@@H](Cc2ccccc2)NC(=O)[C@@H]2CSC1=N2	> 100 µM	> 100 µM	> 100 µM	> 100 µM	> 100 µM	> 100 µM	> 100 µM	> 100 µM	> 100 µM	> 100 µM			
COc1cc(/C=C2\N=C(c3ccccc3)N(/N=C3\C(=O)Nc4ccccc43)C2=O)cc(OC)c1OC	> 100 µM	> 100 µM	> 100 µM	> 100 µM	> 100 µM	> 100 µM	> 100 µM	> 100 µM	> 100 µM	> 100 µM			
Cc1cn(CC2=NCCCN2)c(=O)[nH]c1=O	> 100 µM	> 100 µM	> 100 µM	> 100 µM	> 100 µM	> 100 µM	> 100 µM	> 100 µM	> 100 µM	> 100 µM			
O=C1CSC2=NCC3(NN12)c1ccccc1-c1ccccc13	> 10 µM	> 10 µM	> 10 µM	> 10 µM	> 10 µM	> 10 µM	> 10 µM	> 10 µM	> 10 µM	> 10 µM			
COC(=O)C1(NC(=O)C(CC(=O)OCc2ccccc2)NC(=O)OC(C)(C)C)CC1 (stereo not drawn) (Boc-[ξD](OBn)-[Ac3c]-OMe)	> 100 µM	> 100 µM	> 100 µM	> 100 µM	> 100 µM	> 100 µM	> 100 µM	> 100 µM	> 100 µM	> 100 µM			
CN(C)CCCNc1c2ccccc2nc2cccc([N+](=O)[O-])c12	0.0151 µM	0.196 µM	0.448 µM	> 100 µM	0.00246 µM	0.0589 µM and 0.0601 µM	0.186 µM	0.00244 µM	0.0167 µM and 0.0867 µM	0.0137 µM and 0.0343 µM	0.029 µM	0.0196 µM	< 0.001 µM
C[C@H](CC[C@@H](O)C(C)(C)O)[C@H]1CC[C@@]2(C)[C@@H]3CC=C4[C@@H](CC[C@H](O)C4(C)C)[C@]3(C)C(=O)C[C@]12C	> 50 µM	> 50 µM	> 50 µM	> 50 µM	> 50 µM	> 50 µM	> 50 µM	45.4 µM	> 50 µM	> 50 µM			
O=C(/C=C/c1ccc(-c2ccccc2)cc1)NCc1ccc(C(=O)NCCc2c[nH]c3ccccc23)cc1	> 100 µM	32.1 µM	94.8 µM	45.6 µM	> 100 µM	60.1 µM	> 100 µM	> 100 µM	38.6 µM	23.8 µM			
COc1ccc2c(c1)nc1n2C(N)=Nc2ccccc2S1	> 100 µM	> 23.3 µM	> 100 µM	> 57.8 µM	> 100 µM	> 100 µM	> 100 µM	> 100 µM	> 100 µM	> 100 µM			
N#CC(C#N)=Cc1c(O)ccc2ccccc12	32.1 µM	5.17 µM	26.3 µM	24.6 µM	30.5 µM	50 µM	64.7 µM	33.6 µM	29.5 µM	27.3 µM			
C1#Cc2ccccc2OCCOc2ccccc2C#Cc2ccccc2OCCOc2ccccc21	81.9 µM	36.3 µM	98.9 µM	24.3 µM	> 100 µM	38.3 µM	> 100 µM	> 100 µM	> 100 µM	> 100 µM			
O=c1[nH]c2ccccc2nc1/C=C(\O)C(F)F	> 100 µM	> 100 µM	> 100 µM	> 100 µM	> 100 µM	> 100 µM	> 100 µM	> 100 µM	> 100 µM	> 100 µM			
